Our source for the IC50 values is patent publication US7192948B2, “Bicyclic heterocycles as HIV integrase inhibitors” (priority 2004, dated 2007).

The test has as its target T1, HIV-integrase (Human immunodeficiency virus type 1 group M subtype B, UniProt P12497).
T1 construct: Recombinant integrase (0.26 ng) was incubated with the beads
The experiment in a line: HIV-Integrase Inhibition Activity (SPA bead strand transfer assay). The class given is biochemical. As to conditions: recombinant integrase, in vitro. As to the method: HIV-Integrase Inhibition Activity. To evaluate in-vitro activity against HIV-integrase, 5 pmole of biotin labeled substrate DNA was bound to 100 μg of Streptavidin coated PVT SPA beads (Amersham Pharmacia Biotech). Recombinant integrase (0.26 ng) was incubated with the beads for 90 min at 37° C. Unbound enzyme was removed by washing the complex followed by addition of inhibitors and 0.1 fmol of P33 labeled target DNA. The reaction was stopped by adding EDTA to a final concentration of […]. Samples were counted in TopCountNXT (Packard) and the CPM was used as a measure of integration. The reaction condition was as described in A. Engelman and R. Craigie, J. Virol. 69, 5908–5911 (1995). The sequences of substrate and target DNA were described in Nucleic Acid Research 22, 1121–1122 (1994).
A word on the IC50: it is the point on the concentration scale where inhibition reaches its midpoint. Regarding `O=C1Cn2c(nc(C(=O)NCc3ccc(F)cc3)c(O)c2=O)N1` [Example 1, 6-Hydroxy-2,5-dioxo-1,2,3,5-tetrahydro-imidazo[1,2-a]pyrimidine-7-carboxylic acid 4-fluoro-benzylamide], the IC50 is ≥ 50 nM.

For the compound `CN1C(=O)Cn2c1nc(C(=O)NCc1ccc(F)cc1)c(O)c2=O` [Example 9, N-(4-Fluorobenzyl)-6-hydroxy-1-methyl-2,5-dioxo-1,2,3,5-tetrahydroimidazo[1,2-a]pyrimidine-7-carboxamide], the IC50 was ≥ 50 nM. As for `CN1C(=O)Cn2c1nc(C(=O)NCc1ccc(Cl)c(Cl)c1)c(O)c2=O` [Example 10, N-(3,4-Dichlorobenzyl)-6-hydroxy-1-methyl-2,5-dioxo-1,2,3,5-tetrahydroimidazo[1,2-a]pyrimidine-7-carboxamide], the figure is 4 to 15 nM; as for `Cc1cc(CNC(=O)c2nc3n(c(=O)c2O)CC(=O)N3C)ccc1F` [Example 11, N-(4-Fluoro-3-methylbenzyl)-6-hydroxy-1-methyl-2,5-dioxo-1,2,3,5-tetrahydroimidazo[1,2-a]pyrimidine-7-carboxamide], 4 to 15 nM; as for `CN1C(=O)Cn2c1nc(C(=O)NCc1ccc(F)c(Cl)c1)c(O)c2=O` [Example 12, N-(3-Chloro-4-fluorobenzyl)-6-hydroxy-1-methyl-2,5-dioxo-1,2,3,5-tetrahydroimidazo[1,2-a]pyrimidine-7-carboxamide], 16 to 49000 nM.

For `Cc1ccc(CNC(=O)c2nc3n(c(=O)c2O)CC(=O)N3C)cc1C` [Example 13, N-(3,4-Dimethylbenzyl)-6-hydroxy-1-methyl-2,5-dioxo-1,2,3,5-tetrahydroimidazo[1,2-a]pyrimidine-7-carboxamide], the IC50 was 16 to 49000 nM. With `O=C(NCc1ccc(F)cc1)c1nc2n(c(=O)c1O)CC(=O)N2Cc1ccccc1` [Example 14, N-(4-Fluorobenzyl)-1-benzyl-6-hydroxy-2,5-dioxo-1,2,3,5-tetrahydroimidazo[1,2-a]pyrimidine-7-carboxamide], the half-inhibitory concentration (IC50) fell in the range of 16 to 49000 nM. As for `Cc1cc(CNC(=O)c2nc3n(c(=O)c2O)CC(=O)N3Cc2ccccc2)ccc1F` [Example 15, N-(4-Fluoro-3-methylbenzyl)-1-benzyl-6-hydroxy-2,5-dioxo-1,2,3,5-tetrahydroimidazo[1,2-a]pyrimidine-7-carboxamide], the figure is 16 to 49000 nM; as for `CNC(=O)c1cc(F)ccc1CNC(=O)c1nc2n(c(=O)c1O)CC(=O)N2Cc1ccccc1` [Example 16, N-(4-Fluoro-2-(methylcarbamoyl)benzyl)-1-benzyl-6-hydroxy-2,5-dioxo-1,2,3,5-tetrahydroimidazo[1,2-a]pyrimidine-7-carboxamide], 16 to 49000 nM; as for `CNC(=O)c1cc(F)ccc1CNC(=O)c1nc2n(c(=O)c1O)CC(=O)N2C` [Example 17, N-{4-Fluoro-2-(methylcarbamoyl)benzyl}-6-hydroxy-1-methyl-2,5-dioxo-1,2,3,5-tetrahydroimidazo[1,2-a]pyrimidine-7-carboxamide], ≥ 50 nM. On to `CNC(=O)c1cc(F)ccc1CNC(=O)c1nc2n(c(=O)c1O)CCC(=O)N2C` [Example 23, N-(4-Fluoro-2-(methylcarbamoyl)benzyl)-3-hydroxy-9-methyl-4,8-dioxo-6,7,8,9-tetrahydro-4H-pyrimido[1,2-a]pyrimidine-2-carboxamide], for which the IC50 lay within 4 to 15 nM.

For `O=C(NCc1ccc(F)cc1)c1nc2n(c(=O)c1O)CCS(=O)(=O)N2` [Example 24, 7-Hydroxy-2,2,6-trioxo-1,3,4,6-tetrahydro-2H-2λ^6-pyrimido[2,1-c][1,2,4]thiadiazine-8-carboxylic acid 4-fluoro-benzylamide], the IC50 was ≥ 50 nM. In the case of `CN1C(=O)Cn2c(nc(C(=O)NCc3ccc(F)cc3)c(O)c2=O)N1C` [Example 25, N-(4-Fluorobenzyl)-1,2-dimethyl-7-hydroxy-3,6-dioxo-2,3,4,6-tetrahydro-1H-pyrimido[2,1-c][1,2,4]triazine-8-carboxamide], the IC50 is 16 to 49000 nM. Consider `CN1C(=O)Cn2c(nc(C(=O)NCc3ccc(Cl)c(Cl)c3)c(O)c2=O)N1C` [Example 26, N-(3,4-Dichlorobenzyl)-1,2-dimethyl-7-hydroxy-3,6-dioxo-2,3,4,6-tetrahydro-1H-pyrimido[2,1-c][1,2,4]triazine-8-carboxamide], for which the IC50 lay in the range of 16 to 49000 nM.

Consider `Cc1cc(CNC(=O)c2nc3n(c(=O)c2O)CC(=O)N(C)N3C)ccc1F` [Example 27, N-(4-Fluoro-3-methylbenzyl)-1,2-dimethyl-7-hydroxy-3,6-dioxo-2,3,4,6-tetrahydro-1H-pyrimido[2,1-c][1,2,4]triazine-8-carboxamide], for which the IC50 was 16 to 49000 nM. On to `CN1C(=O)Cn2c(nc(C(=O)NCc3ccc(F)c(Cl)c3)c(O)c2=O)N1C` [Example 28, N-(3-Chloro-4-fluorobenzyl)-1,2-dimethyl-7-hydroxy-3,6-dioxo-2,3,4,6-tetrahydro-1H-pyrimido[2,1-c][1,2,4]triazine-8-carboxamide], for which the IC50 was in the range of 16 to 49000 nM.

In the case of `CN1Nc2nc(C(=O)NCc3ccc(F)cc3)c(O)c(=O)n2CC1=O` [Example 29, N-(4-Fluorobenzyl)-7-hydroxy-2-methyl-3,6-dioxo-2,3,4,6-tetrahydro-1H-pyrimido[2,1-c][1,2,4]triazine-8-carboxamide], the concentration for half-maximal inhibition (IC50) was ≥ 50 nM. As to `Cc1cc(CNC(=O)c2nc3n(c(=O)c2O)CC(=O)N(C)N3)ccc1F` [Example 30, N-(4-Fluoro-3-methylbenzyl)-7-hydroxy-2-methyl-3,6-dioxo-2,3,4,6-tetrahydro-1H-pyrimido[2,1-c][1,2,4]triazine-8-carboxamide], the IC50 was ≥ 50 nM. On to `CN1Nc2nc(C(=O)NCc3ccc(Cl)c(Cl)c3)c(O)c(=O)n2CC1=O` [Example 31, N-(3,4-Dichlorobenzyl)-7-hydroxy-2-methyl-3,6-dioxo-2,3,4,6-tetrahydro-1H-pyrimido[2,1-c][1,2,4]triazine-8-carboxamide], for which the IC50 lay within 4 to 15 nM. As for `Cc1cc(CNC(=O)c2nc3n(c(=O)c2O)CC(=O)N2CCCCN32)ccc1F` [Example 32, 2-Hydroxy-1,9-dioxo-5,6,7,8,9,10-hexahydro-1H-4,4b,8a,10a-tetraaza-phenanthrene-3-carboxylic acid 4-fluoro-3-methyl-benzylamide], the concentration for half-maximal inhibition (IC50) lay within 4 to 15 nM. `O=C(NCc1ccc(F)cc1)c1nc2n(c(=O)c1O)CC(=O)N1CCCCN21` [Example 33, 2-Hydroxy-1,9-dioxo-5,6,7,8,9,10-hexahydro-1H-4,4b,8a,10a-tetraaza-phenanthrene-3-carboxylic acid 4-fluoro-benzylamide]: the IC50 fell in the range of 16 to 49000 nM. For the compound `O=C(NCc1ccc(F)cc1)c1nc2n(c(=O)c1O)CC(=O)N1CCCN21` [Example 34, 7-Hydroxy-4,6-dioxo-2,3,4,5-tetrahydro-1H,6H-3a,5a,9,9b-tetraaza-benz[e]indene-8-carboxylic acid 4-fluoro-benzylamide], the IC50 was 16 to 49000 nM. Take `Cc1cc(CNC(=O)c2nc3n(c(=O)c2O)CC(=O)N2CCCN32)ccc1F` [Example 35, 7-Hydroxy-4,6-dioxo-2,3,4,5-tetrahydro-1H,6H-3a,5a,9,9b-tetraaza-benz[e]indene-8-carboxylic acid 4-fluoro-3-methyl-benzylamide]: the half-maximal inhibitory concentration (IC50) lay in the range of 4 to 15 nM. As for `O=C(NCc1ccc(F)cc1)c1nc2n(c(=O)c1O)CCS2` [Example 36, N-(4-Fluorobenzyl)-6-hydroxy-5-oxo-3,5-dihydro-2H-thiazolo[3,2-a]pyrimidine-7-carboxamide], the figure is 4 to 15 nM; as for `Cc1cc(CNC(=O)c2nc3n(c(=O)c2O)CCS3)ccc1F` [Example 37, N-(4-Fluoro-3-methylbenzyl)-6-hydroxy-5-oxo-3,5-dihydro-2H-thiazolo[3,2-a]pyrimidine-7-carboxamide], 4 to 15 nM; as for `O=C(NCc1ccc(Cl)c(Cl)c1)c1nc2n(c(=O)c1O)CCS2` [Example 38, N-(3,4-Dichlorobenzyl)-6-hydroxy-5-oxo-3,5-dihydro-2H-thiazolo[3,2-a]pyrimidine-7-carboxamide], 4 to 15 nM. Take `Cc1ccc(CNC(=O)c2nc3n(c(=O)c2O)CCS3)cc1C` [Example 39, N-(3,4-Dimethylbenzyl)-6-hydroxy-5-oxo-3,5-dihydro-2H-thiazolo[3,2-a]pyrimidine-7-carboxamide]: the IC50 lay within 16 to 49000 nM. Turning to `CNC(=O)c1cc(F)ccc1CNC(=O)c1nc2n(c(=O)c1O)CCS2` [Example 40, N-(4-Fluoro-2-(methylcarbamoyl)benzyl)-6-hydroxy-5-oxo-3,5-dihydro-2H-thiazolo[3,2-a]pyrimidine-7-carboxamide], the IC50 fell in the range of 16 to 49000 nM.

`CC1(C)Cn2c(nc(C(=O)NCc3ccc(F)cc3)c(O)c2=O)S1` [Example 41, N-(4-Fluorobenzyl)-6-hydroxy-2,2-dimethyl-5-oxo-3,5-dihydro-2H-thiazolo[3,2-a]pyrimidine-7-carboxamide]: the IC50 is ≥ 50 nM. For `CNC(=O)c1cc(F)ccc1CNC(=O)c1nc2n(c(=O)c1O)CC(C)(C)S2` [Example 42, N-(4-Fluoro-2-(methylcarbamoyl)benzyl)-6-hydroxy-2,2-dimethyl-5-oxo-3,5-dihydro-2H-thiazolo[3,2-a]pyrimidine-7-carboxamide] the value was ≥ 50 nM. With `O=C1Cn2c(nc(C(=O)NCc3ccc(F)cc3)c(O)c2=O)CN1` [Example 43, N-(4-Fluorobenzyl)-3-hydroxy-4,7-dioxo-6,7,8,9-tetrahydro-4H-pyrazino[1,2-a]pyrimidine-2-carboxamide], the IC50 is ≥ 50 nM. For the compound `CN1Cc2nc(C(=O)NCc3ccc(F)cc3)c(O)c(=O)n2CC1=O` [Example 44, N-(4-Fluorobenzyl)-3-hydroxy-8-methyl-4,7-dioxo-6,7,8,9-tetrahydro-4H-pyrazino[1,2-a]pyrimidine-2-carboxamide], the IC50 is ≥ 50 nM.
